Results as given in patent US20250019398A1, “NONAMERIC PEPTIDE HAVING EXCELLENT ANTIBACTERIAL ACTIVITY AGAINST GRAM-NEGATIVE BACTERIA AND ENANTIOMER THEREOF” (priority 2021, published 2025).
≈ marks a conversion by molar mass, not a printed value. Entries after “also recorded” stand apart in the source; their conditions may differ. Read-outs that look alike come from different tables or passages of the source. Square brackets hold non-standard residues; d marks the D form. Peptide text beside a SMILES is read from it.

What was measured:
LPS (E. coli O111:B4) = assay: BODIPY-TR cadaverine displacement assay (LPS binding); conditions: 4 μM, 30 minutes
Protocol: The binding ability of peptides to LPS was investigated by BODIPY-TR cadaverine (BC, Thermo Fisher Scientific, MA, USA) displacement assay (FIG. 2A). A probe complex was prepared by mixing 5 μg/mL BC and 5 μg/mL LPS (E. coli O111:B4, Sigma-Aldrich, St. Louis, MO, USA) in a 50 mM Tris buffer (pH 7.4) at room temperature for 6 hours. Peptides containing a polymyxin B (PMB) control (1 to 64 μM), which is known to have high LPS binding ability, were allowed to interact with the LPS-BC mixture in a black 96-well plate for 30 minutes. Relative fluorescence intensities were recorded using a fluorescence microplate reader (Molecular Devices, San Jose, USA) at an excitation wavelength of 580 nm and an emission wavelength of 620 nm.

[1] = test system: Escherichia coli KCTC 1682; assay: MIC, broth dilution; format: cell-based; conditions: standard Gram-negative bacteria, 16 hours; read-out: Minimal inhibitory concentration (MIC), E. coli
Excerpt: (§1) In addition, carbapenem-resistant E. coli NCCP16044 and carbapenem-resistant Klebsiella pneumonia NCCP 15782 were obtained from the NCCP, and three types of carbapenem-resistant A. baumanii CCARM 12004-6 were obtained from the Culture Collection of Antimicrobial Resistance Microbes (CCARM) (Cheongju City, Korea). The E. coli K1 (ATCC700973) strain used in the animal experiments was obtained from the American Type Culture Collection (ATCC) ([…]).
(§2) The antimicrobial activities of the peptides were measured by a minimal inhibitory concentration (MIC) analysis. The MIC was determined using a broth dilution method. All bacterial strains were grown overnight at 37° C. in a Muller-Hinton (MH) medium.

[2] = test system: Acinetobacter baumannii KCCM 40203; assay: MIC, broth dilution; format: cell-based; conditions: standard Gram-negative bacteria, 16 hours
Excerpt: as §1, with “Among the bacterial strains used in the experiment, Escherichia coli KCTC 1682 was obtained from the Korean Collection for Type Cultures (KCTC) (Jeongeup, Korea), Acinetobacter baumannii KCCM 40203 and Pseudomonas aeruginosa KCCM 11328 were obtained from the Korean Culture Center of Microorganisms (KCCM) (Seoul, Korea), and Klebsiella pneumonia NCCP 16054 was obtained from the National Culture Collection for Pathogens (NCCP) (Osong, Korea). In” for “In”
as §2

[3] = test system: Klebsiella pneumonia NCCP 16054; assay: MIC, broth dilution; format: cell-based; conditions: standard Gram-negative bacteria, 16 hours
Excerpt: as §1, with “Among the bacterial strains used in the experiment, Escherichia coli KCTC 1682 was obtained from the Korean Collection for Type Cultures (KCTC) (Jeongeup, Korea), Acinetobacter baumannii KCCM 40203 and Pseudomonas aeruginosa KCCM 11328 were obtained from the Korean Culture Center of Microorganisms (KCCM) (Seoul, Korea), and Klebsiella pneumonia NCCP 16054 was obtained from the National Culture Collection for Pathogens (NCCP) (Osong, Korea). In” for “In”
as §2

[4] = test system: Pseudomonas aeruginosa KCCM 11328; assay: MIC, broth dilution; format: cell-based; conditions: standard Gram-negative bacteria, 16 hours
Excerpt: as §1, with “Among the bacterial strains used in the experiment, Escherichia coli KCTC 1682 was obtained from the Korean Collection for Type Cultures (KCTC) (Jeongeup, Korea), Acinetobacter baumannii KCCM 40203 and Pseudomonas aeruginosa KCCM 11328 were obtained from the Korean Culture Center of Microorganisms (KCCM) (Seoul, Korea), and Klebsiella pneumonia NCCP 16054 was obtained from the National Culture Collection for Pathogens (NCCP) (Osong, Korea). In” for “In”
as §2

[5] = test system: carbapenem-resistant Klebsiella pneumonia NCCP 15782 (CRKP 15782); assay: MIC, broth dilution; format: cell-based; conditions: 16 hours
Excerpt: as §1, with “Among the bacterial strains used in the experiment, Escherichia coli KCTC 1682 was obtained from the Korean Collection for Type Cultures (KCTC) (Jeongeup, Korea), Acinetobacter baumannii KCCM 40203 and Pseudomonas aeruginosa KCCM 11328 were obtained from the Korean Culture Center of Microorganisms (KCCM) (Seoul, Korea), and Klebsiella pneumonia NCCP 16054 was obtained from the National Culture Collection for Pathogens (NCCP) (Osong, Korea). In” for “In”
as §2

[6] = test system: carbapenem-resistant E. coli NCCP16044 (CREC 16044); assay: microbe, parasite or virus in culture; format: cell-based; conditions: 16 hours, read-out: Minimal inhibitory concentration (MIC), CREC 16044
Excerpt: as §1, with “Among the bacterial strains used in the experiment, Escherichia coli KCTC 1682 was obtained from the Korean Collection for Type Cultures (KCTC) (Jeongeup, Korea), Acinetobacter baumannii KCCM 40203 and Pseudomonas aeruginosa KCCM 11328 were obtained from the Korean Culture Center of Microorganisms (KCCM) (Seoul, Korea), and Klebsiella pneumonia NCCP 16054 was obtained from the National Culture Collection for Pathogens (NCCP) (Osong, Korea). In” for “In”
as §2

[7] = test system: CRAB 12004 (carbapenem-resistant A. baumanii CCARM); assay: MIC, broth dilution; format: cell-based, A. baumannii; conditions: 16 hours, read-out: Minimal inhibitory concentration (MIC), CRAB 12004
Excerpt: as §1, with “Among the bacterial strains used in the experiment, Escherichia coli KCTC 1682 was obtained from the Korean Collection for Type Cultures (KCTC) (Jeongeup, Korea), Acinetobacter baumannii KCCM 40203 and Pseudomonas aeruginosa KCCM 11328 were obtained from the Korean Culture Center of Microorganisms (KCCM) (Seoul, Korea), and Klebsiella pneumonia NCCP 16054 was obtained from the National Culture Collection for Pathogens (NCCP) (Osong, Korea). In” for “In”
as §2

[8] = test system: CRAB 12005 (carbapenem-resistant A. baumanii CCARM); assay: MIC, broth dilution; format: cell-based, A. baumannii; conditions: 16 hours, read-out: Minimal inhibitory concentration (MIC), CRAB 12005
Excerpt: as §1, with “Among the bacterial strains used in the experiment, Escherichia coli KCTC 1682 was obtained from the Korean Collection for Type Cultures (KCTC) (Jeongeup, Korea), Acinetobacter baumannii KCCM 40203 and Pseudomonas aeruginosa KCCM 11328 were obtained from the Korean Culture Center of Microorganisms (KCCM) (Seoul, Korea), and Klebsiella pneumonia NCCP 16054 was obtained from the National Culture Collection for Pathogens (NCCP) (Osong, Korea). In” for “In”
as §2

[9] = test system: CRAB 12006 (carbapenem-resistant A. baumanii CCARM); assay: MIC, broth dilution; format: cell-based, A. baumannii; conditions: 16 hours, read-out: Minimal inhibitory concentration (MIC), CRAB 12006
Excerpt: as §1, with “Among the bacterial strains used in the experiment, Escherichia coli KCTC 1682 was obtained from the Korean Collection for Type Cultures (KCTC) (Jeongeup, Korea), Acinetobacter baumannii KCCM 40203 and Pseudomonas aeruginosa KCCM 11328 were obtained from the Korean Culture Center of Microorganisms (KCCM) (Seoul, Korea), and Klebsiella pneumonia NCCP 16054 was obtained from the National Culture Collection for Pathogens (NCCP) (Osong, Korea). In” for “In”
as §2

[10] = test system: sheep red blood cells (sRBCs); assay: Hemolysis of sheep red blood cells; format: cell-based
Protocol: Peptide-induced toxicity was determined by hemolysis of sheep red blood cells (sRBCs). Fresh sRBCs were washed three times or more with phosphate buffered saline (PBS), and debris was removed by centrifugation (1000×g, 5 minutes, 4° C.). All the peptides including a melittin control (0.2 to 100 μM) and a positive control (1% (v/v) Triton X-100) were cultured with 4% (v/v) sRBCs at 37° C. for 1 h, and then centrifuged at 1000×g for 5 minutes. The supernatant was measured at 405 nm using a microplate reader.

A. baumannii = format: cell-based; conditions: 37° C.
Protocol: (§3) Proteolysis of peptides in serum has limited clinical use due to decreased bioavailability and half-life. Therefore, the stability of all the peptides pre-exposed to trypsin and chymotrypsin proteases was investigated and the relative growth inhibition of E. coli and A. baumannii was determined (Table 3). […] Thereafter, 100 μL of a peptide-protease mixture was added to 100 μL of a bacterial suspension (E. coli, A. baumannii, 2×10^5 CFU/mL), and the resulting mixture was further cultured at 37°° C. for 16 hours. A bacterial suspension without a peptide and protease was employed as a negative control. An analysis was performed in triplicates through independent experiments, and the degree of bacterial growth was measured at 600 nm using a microplate reader.

E. coli = format: cell-based; conditions: 37° C.
Protocol: as §3

[11] = test system: RAW 264.7 mouse macrophages; assay: WST-8 cytotoxicity; format: cell-based; conditions: 100 μM, 24 hours
Protocol: (§4) Additionally, for a cell-based toxicity assay, RAW 264.7 mouse macrophages and human kidney (HK)-2 cells were obtained from the Korean Cell Line Bank (Seoul, Korea), and cells were maintained in a DMEM culture medium (Thermo Fischer Scientific Inc., MA, USA) supplemented with 10% fetal bovine serum and 1% penicillin/streptomycin at 37° C. in a humidified 5% CO2 incubator. The cytotoxicity of the peptides was analyzed using a WST-8 cell proliferation assay (Biomax Co, Ltd, Seoul, South Korea), and the experiment was performed according to the kit protocol. Cells (1×10^4) were seeded in a 96-well plate, the peptide treatment (0 to 100 μM) were initiated at 80% confluency and then the cells were cultured for 24 hours. After culturing, a WST-8 reagent was added and the change in absorbance was read at 450 nm relative to the reagent blank, and values were expressed as percent cell survival.

[12] = test system: human kidney (HK)-2 cells; assay: WST-8 cytotoxicity; format: cell-based; conditions: 100 μM, 24 hours
Protocol: as §4

[13] = In vivo toxicity (serum AST, ALT, BUN); design: species or system ICR mice; conditions: 1 mg/kg and 5 mg/kg i.p., 24 hours
Protocol: For in vivo toxicity measurements, ICR mice (n=5 per group) were injected intraperitoneally (i.p.) with R-Pro9-3D (1 mg and 5 mg/kg/day in PBS), and serum levels of aspartate aminotransferase (AST) and alanine aminotransferase (ALT) in the liver and BUN (blood urea nitrogen) in the kidney were measured using a standard kit manufactured by ASAN PHARM. Co., LTD.

[14] = peptide pre-cultured with trypsin 6 hours
[15] = peptide pre-cultured with α-chymotrypsin 6 hours

## polymyxin B [PMB]
LPS (E. coli O111:B4)
  BC displacement (LPS binding): 76.6%

## CC[C@@H](C)[C@@H](NC(=O)[C@@H](Cc1c[nH]c2ccccc12)NC(=O)[C@@H](CCCNC(=N)N)NC(=O)[C@H](N)CCCNC(=N)N)C(=O)N[C@H](C)C(=O)N[C@H](CC(C)C)C(=O)N[C@H](Cc1c[nH]c2ccccc12)C(=O)N[C@H](CC(C)C)C(=O)N[C@H](CCCNC(=N)N)C(N)=O [R-Pro9-3D, rrwialwlr-NH2] (H-[dR][dR][dW][dI][dA][dL][dW][dL][dR]-NH2)
[1]
  MIC: 8 µM (≈ 10.1 µg/mL)
[2]
  Minimal inhibitory concentration (MIC), A. baumannii: 4 µM (≈ 5.07 µg/mL)
[3]
  Minimal inhibitory concentration (MIC), K. pneumonia: 8 µM (≈ 10.1 µg/mL)
[4]
  Minimal inhibitory concentration (MIC), P. aeruginosa: 8 µM (≈ 10.1 µg/mL)
[5]
  Minimal inhibitory concentration (MIC), CRKP 15782: 8 µM (≈ 10.1 µg/mL)
[6]
  MIC: 4 µM (≈ 5.07 µg/mL)
[7]
  MIC: 4 µM (≈ 5.07 µg/mL)
[8]
  MIC: 4 µM (≈ 5.07 µg/mL)
[9]
  MIC: 4 µM (≈ 5.07 µg/mL)
[10]; 100 μM, 1 h
  Hemolysis of sRBCs: 1.2%
[10]; sheep red blood cells, 200 μM used when no detectable hemolysis at 100 μM
  HC10 (peptide concentration that induces 10% hemolysis): 200 µM
A. baumannii; [14]
  MIC, A. baumannii + Trypsin: 4 µM
A. baumannii; [15]
  MIC, A. baumannii + α-Chymotrypsin: 4 µM
E. coli; [14]
  MIC, E. coli + Trypsin: 8 µM
E. coli; [15]
  MIC, E. coli + α-Chymotrypsin: 8 µM
[11]
  Toxicity in RAW264.7 cells: 20.3%
[12]
  Toxicity in human kidney (HK)-2 cells: 9.6%
[13]
  Serum AST, ALT and BUN levels (in vivo toxicity): no clinically significant levels; also recorded: did not increase the above enzyme levels

## C[C@@H](O)[C@H]1C(=O)N2C(C(=O)O)=C(SCCN=CN)C[C@H]12 [Imipenem]
[6]; Escherichia coli
  MIC: 8 µM (≈ 2.39 µg/mL)
[7]; Acinetobacter baumannii
  MIC: 64 µM (≈ 19.2 µg/mL)
[8]; Acinetobacter baumannii
  MIC: 64 µM (≈ 19.2 µg/mL)
[9]; Acinetobacter baumannii
  MIC: 64 µM (≈ 19.2 µg/mL)
